Numbers after ± are expanded uncertainties.
Assay: molar heat capacity at constant pressure
Settings: 101.33 kPa, Liquid

| SMILES | molar heat capacity at constant pressure (284.15 K) | molar heat capacity at constant pressure (286.65 K) | molar heat capacity at constant pressure (289.15 K) | molar heat capacity at constant pressure (291.65 K) | molar heat capacity at constant pressure (294.15 K) | molar heat capacity at constant pressure (296.65 K) | molar heat capacity at constant pressure (299.15 K) | molar heat capacity at constant pressure (301.65 K) | molar heat capacity at constant pressure (304.15 K) | molar heat capacity at constant pressure (306.65 K) | molar heat capacity at constant pressure (309.15 K) | molar heat capacity at constant pressure (311.65 K) | molar heat capacity at constant pressure (314.15 K) | molar heat capacity at constant pressure (316.65 K) | molar heat capacity at constant pressure (319.15 K) | molar heat capacity at constant pressure (321.65 K) | molar heat capacity at constant pressure (324.15 K) | molar heat capacity at constant pressure (326.65 K) | molar heat capacity at constant pressure (329.15 K) | molar heat capacity at constant pressure (331.65 K) | other results |
| --- | --- | --- | --- | --- | --- | --- | --- | --- | --- | --- | --- | --- | --- | --- | --- | --- | --- | --- | --- | --- | --- |
| CCCCCCCBr [1-bromoheptane] | 244.73 ± 1.2 J/K/mol | 245.56 ± 1.2 J/K/mol | 246.44 ± 1.2 J/K/mol | 247.28 ± 1.2 J/K/mol | 248.12 ± 1.2 J/K/mol | 248.93 ± 1.2 J/K/mol | 249.7 ± 1.2 J/K/mol | 250.38 ± 1.2 J/K/mol | 251.56 ± 1.3 J/K/mol | 252.33 ± 1.3 J/K/mol | 253.19 ± 1.3 J/K/mol | 254.14 ± 1.3 J/K/mol | 255 ± 1.3 J/K/mol | 255.97 ± 1.3 J/K/mol | 256.84 ± 1.3 J/K/mol | 257.85 ± 1.3 J/K/mol | 258.76 ± 1.3 J/K/mol | 259.71 ± 1.3 J/K/mol | 260.68 ± 1.3 J/K/mol | 261.61 ± 1.3 J/K/mol | molar heat capacity at constant pressure (334.15 K): 262.5 ± 1.3 J/K/mol; molar heat capacity at constant pressure (336.65 K): 262.97 ± 1.3 J/K/mol; molar heat capacity at constant pressure (339.15 K): 264.64 ± 1.3 J/K/mol; molar heat capacity at constant pressure (341.65 K): 265.49 ± 1.3 J/K/mol; molar heat capacity at constant pressure (344.15 K): 266.52 ± 1.3 J/K/mol; molar heat capacity at constant pressure (346.65 K): 267.46 ± 1.3 J/K/mol; molar heat capacity at constant pressure (349.15 K): 268.47 ± 1.3 J/K/mol; molar heat capacity at constant pressure (351.65 K): 269.51 ± 1.4 J/K/mol; molar heat capacity at constant pressure (353.15 K): 270.03 ± 1.4 J/K/mol |
| CCCCCCCCCBr [1-bromononane] | 302.55 ± 1.5 J/K/mol | 303.54 ± 1.5 J/K/mol | 304.62 ± 1.5 J/K/mol | 305.57 ± 1.5 J/K/mol | 306.69 ± 1.5 J/K/mol | 307.68 ± 1.5 J/K/mol | 308.8 ± 1.5 J/K/mol | 309.82 ± 1.6 J/K/mol | 310.95 ± 1.6 J/K/mol | 311.91 ± 1.6 J/K/mol | 313.01 ± 1.6 J/K/mol | 314.1 ± 1.6 J/K/mol | 315.18 ± 1.6 J/K/mol | 316.32 ± 1.6 J/K/mol | 317.44 ± 1.6 J/K/mol | 318.7 ± 1.6 J/K/mol | 319.8 ± 1.6 J/K/mol | 320.96 ± 1.6 J/K/mol | 322.16 ± 1.6 J/K/mol | 323.32 ± 1.6 J/K/mol | molar heat capacity at constant pressure (334.15 K): 324.63 ± 1.6 J/K/mol; molar heat capacity at constant pressure (336.65 K): 325 ± 1.6 J/K/mol; molar heat capacity at constant pressure (339.15 K): 326.99 ± 1.6 J/K/mol; molar heat capacity at constant pressure (341.65 K): 328.13 ± 1.6 J/K/mol; molar heat capacity at constant pressure (344.15 K): 329.39 ± 1.6 J/K/mol; molar heat capacity at constant pressure (346.65 K): 330.49 ± 1.6 J/K/mol; molar heat capacity at constant pressure (349.15 K): 331.79 ± 1.7 J/K/mol; molar heat capacity at constant pressure (351.65 K): 333.04 ± 1.7 J/K/mol; molar heat capacity at constant pressure (353.15 K): 333.74 ± 1.7 J/K/mol |
| CCBr [bromoethane] | 105.63 ± 0.53 J/K/mol | 105.91 ± 0.53 J/K/mol | 106.14 ± 0.53 J/K/mol | 106.42 ± 0.53 J/K/mol | 106.75 ± 0.53 J/K/mol | 107.09 ± 0.54 J/K/mol | 107.42 ± 0.54 J/K/mol | – | – | – | – | – | – | – | – | – | – | – | – | – | molar heat capacity at constant pressure (269.15 K): 104.07 ± 0.52 J/K/mol; molar heat capacity at constant pressure (271.65 K): 104.37 ± 0.52 J/K/mol; molar heat capacity at constant pressure (274.15 K): 104.6 ± 0.52 J/K/mol; molar heat capacity at constant pressure (276.65 K): 104.85 ± 0.52 J/K/mol; molar heat capacity at constant pressure (279.15 K): 105.14 ± 0.53 J/K/mol; molar heat capacity at constant pressure (281.65 K): 105.42 ± 0.53 J/K/mol |
| CCCCCCBr [1-bromohexane] | 215.54 ± 1.1 J/K/mol | 216.29 ± 1.1 J/K/mol | 217.08 ± 1.1 J/K/mol | 217.78 ± 1.1 J/K/mol | 218.54 ± 1.1 J/K/mol | 219.26 ± 1.1 J/K/mol | 219.99 ± 1.1 J/K/mol | 220.68 ± 1.1 J/K/mol | 221.38 ± 1.1 J/K/mol | 222.22 ± 1.1 J/K/mol | 222.98 ± 1.1 J/K/mol | 223.79 ± 1.1 J/K/mol | 224.63 ± 1.1 J/K/mol | 225.37 ± 1.1 J/K/mol | 226.2 ± 1.1 J/K/mol | 227.01 ± 1.1 J/K/mol | 227.86 ± 1.1 J/K/mol | 228.67 ± 1.1 J/K/mol | 229.55 ± 1.1 J/K/mol | 230.39 ± 1.1 J/K/mol | molar heat capacity at constant pressure (334.15 K): 231.21 ± 1.2 J/K/mol; molar heat capacity at constant pressure (336.65 K): 231.59 ± 1.2 J/K/mol; molar heat capacity at constant pressure (339.15 K): 233.25 ± 1.2 J/K/mol; molar heat capacity at constant pressure (341.65 K): 233.77 ± 1.2 J/K/mol; molar heat capacity at constant pressure (344.15 K): 234.73 ± 1.2 J/K/mol; molar heat capacity at constant pressure (346.65 K): 235.64 ± 1.2 J/K/mol; molar heat capacity at constant pressure (349.15 K): 236.55 ± 1.2 J/K/mol; molar heat capacity at constant pressure (351.65 K): 237.39 ± 1.2 J/K/mol; molar heat capacity at constant pressure (353.15 K): 237.85 ± 1.2 J/K/mol |
| CCCCCCl [1-chloropentane] | 184.57 ± 0.92 J/K/mol | 185.29 ± 0.93 J/K/mol | 185.95 ± 0.93 J/K/mol | 186.52 ± 0.93 J/K/mol | 187.16 ± 0.94 J/K/mol | 187.66 ± 0.94 J/K/mol | 188.46 ± 0.94 J/K/mol | 189.19 ± 0.95 J/K/mol | 189.81 ± 0.95 J/K/mol | 190.32 ± 0.95 J/K/mol | 190.99 ± 0.95 J/K/mol | 191.89 ± 0.96 J/K/mol | 192.65 ± 0.96 J/K/mol | 193.22 ± 0.97 J/K/mol | 194.09 ± 0.97 J/K/mol | 194.69 ± 0.97 J/K/mol | 195.06 ± 0.98 J/K/mol | 196.14 ± 0.98 J/K/mol | 196.99 ± 0.98 J/K/mol | 197.64 ± 0.99 J/K/mol | molar heat capacity at constant pressure (334.15 K): 198.46 ± 0.99 J/K/mol; molar heat capacity at constant pressure (336.65 K): 199.23 ± 1 J/K/mol; molar heat capacity at constant pressure (339.15 K): 199.92 ± 1 J/K/mol; molar heat capacity at constant pressure (341.65 K): 200.41 ± 1 J/K/mol; molar heat capacity at constant pressure (344.15 K): 201.19 ± 1 J/K/mol; molar heat capacity at constant pressure (346.65 K): 201.73 ± 1 J/K/mol; molar heat capacity at constant pressure (349.15 K): 202.54 ± 1 J/K/mol; molar heat capacity at constant pressure (351.65 K): 203.57 ± 1 J/K/mol; molar heat capacity at constant pressure (353.15 K): 204.24 ± 1 J/K/mol |
| CCCCCCCCCCCl [1-chlorodecane] | 328.57 ± 1.6 J/K/mol | 329.82 ± 1.6 J/K/mol | 331 ± 1.7 J/K/mol | 332.01 ± 1.7 J/K/mol | 333.14 ± 1.7 J/K/mol | 334.13 ± 1.7 J/K/mol | 335.39 ± 1.7 J/K/mol | 336.61 ± 1.7 J/K/mol | 337.47 ± 1.7 J/K/mol | 338.66 ± 1.7 J/K/mol | 339.83 ± 1.7 J/K/mol | 341.39 ± 1.7 J/K/mol | 342.42 ± 1.7 J/K/mol | 343.41 ± 1.7 J/K/mol | 345.04 ± 1.7 J/K/mol | 346.36 ± 1.7 J/K/mol | 346.99 ± 1.7 J/K/mol | 348.75 ± 1.7 J/K/mol | 350.01 ± 1.8 J/K/mol | 351.31 ± 1.8 J/K/mol | molar heat capacity at constant pressure (334.15 K): 352.76 ± 1.8 J/K/mol; molar heat capacity at constant pressure (336.65 K): 353.39 ± 1.8 J/K/mol; molar heat capacity at constant pressure (339.15 K): 355.52 ± 1.8 J/K/mol; molar heat capacity at constant pressure (341.65 K): 356.17 ± 1.8 J/K/mol; molar heat capacity at constant pressure (344.15 K): 357.74 ± 1.8 J/K/mol; molar heat capacity at constant pressure (346.65 K): 358.38 ± 1.8 J/K/mol; molar heat capacity at constant pressure (349.15 K): 359.65 ± 1.8 J/K/mol; molar heat capacity at constant pressure (351.65 K): 361.49 ± 1.8 J/K/mol; molar heat capacity at constant pressure (353.15 K): 362.49 ± 1.8 J/K/mol |

From the NIST ThermoML archive (doi:10.1021/je049652j)
